Experiments:
[1] = system: Germs (E. coli, P. aeruginosa); assay: Residual DNA contained in microorganisms (germs) on tubes after treatment, determined by PCR; format: cell-based
Protocol: (§1) Several consumables consisting of 1.5 ml polypropylene tubes were contaminated in parallel with a known quantity of DNA, RNA or microorganisms. These consumables were then gamma-sterilized (doses from 0 to 60 kGy) or treated with ethylene oxide in gaseous phase. After sterilization, the presence of residual nucleic acids is determined by PCR (for DNA) and TMA (for RNA) and compared with an unsterilized control consumable.
(§2) Several consumables of the same type as those used in protocol 1 were contaminated with the same known quantity of DNA, RNA or microorganisms. These consumables were then treated by a treatment with hydrogen peroxide made in liquid solution (respectively 3% and 30% H2O2). The hydrogen peroxide is evaporated at the end of the process by virtue of a step of drying under vacuum at a temperature of 60° C. After treatment, the presence of residual nucleic acids was determined by PCR (for DNA) and TMA (for RNA) and compared with an untreated sample.
(§3) Several consumables of the same type as those used in protocol 1 were contaminated with the same known quantity of DNA, RNA or microorganisms. A proportion of those consumables was then treated according to the invention with gaseous ethylene oxide followed by the 3% or 30% hydrogen peroxide. A further proportion was treated with gamma radiation instead of with the gaseous ethylene oxide then with hydrogen peroxide. In both cases, the hydrogen peroxide was evaporated by virtue of a vacuum drying step at a temperature of 60° C. After treatment, the presence of residual nucleic acids was determined by PCR (for DNA) and TMA (for RNA) and compared with an untreated sample.

[2] = system: DNA (E. coli, P. aeruginosa); assay: Residual free DNA on 1.5 ml polypropylene tubes after treatment, determined by PCR
Protocol: as §1, §2

[3] = system: RNA (P. acnes, P. aeruginosa); assay: Residual free RNA on 1.5 ml polypropylene tubes after treatment, determined by TMA; parameters: key to the marks not given beside the values
Protocol: as §1, §2

[4] = system: Germs (P. acnes, P. aeruginosa); assay: Residual RNA contained in microorganisms (germs) on tubes after treatment, determined by TMA; format: cell-based
Protocol: as §1, §2, §3

[5] = Protocol 2, liquid H2O2, minimum time of action 40 min at 60° C.

SMILES	Effectiveness of the residual nucleic acid treatment, Germs (PCR) ([1]; Protocol 1, DNA in microorganisms, E. coli, P. aeruginosa)	Effectiveness of the residual nucleic acid treatment, DNA (PCR) ([2]; Protocol 1, free DNA, E. coli, P. aeruginosa, vs unsterilized control)	Effectiveness of the residual nucleic acid treatment, RNA (TMA) ([3]; Protocol 1, free RNA, P. acnes, P. aeruginosa, vs unsterilized control)	Effectiveness of the residual nucleic acid treatment, Germs (TMA) ([4]; Protocol 1, RNA in microorganisms, P. acnes, P. aeruginosa)	Effectiveness of the residual nucleic acid treatment, Germs (PCR) [1, 5]	Effectiveness of the residual nucleic acid treatment, DNA (PCR) [2, 5]	Effectiveness of the residual nucleic acid treatment, RNA (TMA) [3, 5]	Effectiveness of the residual nucleic acid treatment, Germs (TMA) [4, 5]
C1CO1 [EO, ethylene oxide]	+	+	+++	−				
OO [H2O2 30%, hydrogen peroxide]					−	+++	+++	−
OO [H2O2 3%, hydrogen peroxide]					−	++	++	−
